Laboratory results from ChEMBL document CHEMBL5518170, “Dual target PARP1/EZH2 inhibitors inducing excessive autophagy and producing synthetic lethality for triple-negative breast cancer therapy” (Eur J Med Chem, 2024).

Columns and labels:
BT-549 [1] = assay: cells; settings: Homo sapiens, BT-549, 72 h
Description: Cytotoxicity against human BT-549 cells incubated for 72 hrs by MTT assay

MDA-MB-231 [2] = assay: cells; settings: Homo sapiens, MDA-MB-231, 72 h
Description: Cytotoxicity against human MDA-MB-231 cells incubated for 72 hrs by MTT assay

MCF-10A [3] = assay: cells; settings: Homo sapiens, 72 h
Description: Cytotoxicity against human MCF-10A cells incubated for 72 hrs by MTT assay

MCF-10A [4] = assay: cells; settings: Homo sapiens, 72 h; remark: listed apart in the source
MDA-MB-231 [5] = assay: cells; settings: Homo sapiens, MDA-MB-231, 72 h; remark: listed apart in the source
MDA-MB-231 [6] = assay: Synergistic antitumor activity against human MDA-MB-231 cells xenografted in BALB/c mouse assessed as tumor growth inhibition at 50 mg/kg,ip administrated in presence of Niraparib for 21 consecutive days; format: functional; settings: read-out: TGI
BT-549 [7] = assay: cells; settings: Homo sapiens, BT-549, 72 h; remark: listed apart in the source

Row | SMILES | IC50 (BT-549 [1]) [µM] | IC50 (MDA-MB-231 [2]) [µM] | IC50 (MCF-10A [3]) [µM] | IC50 (MCF-10A [4]) [µM] | IC50 (MDA-MB-231 [5]) [µM] | inhibition in vivo at 50 mg/kg (MDA-MB-231 [6]) [%] | IC50 (BT-549 [7]) [µM]
1 | O=C(c1cc(Cc2n[nH]c(=O)c3ccccc23)ccc1F)N1CCN(C(=O)C2CC2)CC1 [OLAPARIB] | 35.2 | 35.8 | > 40 | – | – | – | –
2 | CCNc1cc(-c2ccc(CC(=O)NCc3nc4c(C(N)=O)cccc4[nH]3)cc2)cc(C(=O)NCc2c(C)cc(C)[nH]c2=O)c1C | 21.8 | > 40 | > 40 | – | – | – | –
3 | CCNc1cc(-c2ccc(CC(=O)N3CC[C@@H](c4nc5c(C(N)=O)cccc5[nH]4)C3)cc2)cc(C(=O)NCc2c(C)cc(C)[nH]c2=O)c1C | 22.6 | > 40 | > 40 | – | – | – | –
4 | CCn1ccc2c(C(=O)NCc3c(C)cc(C)[nH]c3=O)cc(-c3ccc(-c4nc5c(C(N)=O)cccc5[nH]4)cc3)cc21 | > 40 | > 40 | > 40 | – | – | – | –
5 | CCNc1cc(-c2ccc(CC(=O)N3CCC(Cc4nc5c(C(N)=O)cccc5[nH]4)CC3)cc2)cc(C(=O)NCc2c(C)cc(C)[nH]c2=O)c1C | > 40 | > 40 | > 40 | – | – | – | –
6 | CCNc1cc(-c2ccc(CC(=O)NCCCc3nc4c(C(N)=O)cccc4[nH]3)cc2)cc(C(=O)NCc2c(C)cc(C)[nH]c2=O)c1C | 37.2 | > 40 | > 40 | – | – | – | –
7 | CCNc1cc(-c2ccc(CC(=O)Nc3ccc(-c4nc5c(C(N)=O)cccc5[nH]4)cc3)cc2)cc(C(=O)NCc2c(C)cc(C)[nH]c2=O)c1C | > 40 | > 40 | > 40 | – | – | – | –
8 | CCNc1cc(-c2ccc(CC(=O)NCCCCc3nc4c(C(N)=O)cccc4[nH]3)cc2)cc(C(=O)NCc2c(C)cc(C)[nH]c2=O)c1C | > 40 | > 40 | > 40 | – | – | – | –
9 | CCNc1cc(-c2ccc(CC(=O)NCCc3nc4c(C(N)=O)cccc4[nH]3)cc2)cc(C(=O)NCc2c(C)cc(C)[nH]c2=O)c1C | 31.5 | > 40 | > 40 | – | – | – | –
10 | CCNc1cc(-c2ccc(CC(=O)N3CC(c4nc5c(C(N)=O)cccc5[nH]4)C3)cc2)cc(C(=O)NCc2c(C)cc(C)[nH]c2=O)c1C | > 40 | > 40 | > 40 | – | – | – | –
11 | CC[C@H](C)n1cc(C)c2c(C(=O)NCc3c(C)cc(C)[nH]c3=O)cc(-c3ccc(N4CCNCC4)nc3)cc21 [GSK2816126] | 19.2 | 13.2 | > 40 | > 40 | 6.32 | 57.2 | 8.28
12 | CCNc1cc(-c2ccc(CC(=O)N3CCC[C@H](c4nc5c(C(N)=O)cccc5[nH]4)C3)cc2)cc(C(=O)NCc2c(C)cc(C)[nH]c2=O)c1C | 23.5 | 33.7 | > 40 | – | – | – | –
13 | CCNc1cc(-c2ccc(CC(=O)NCCCCCc3nc4c(C(N)=O)cccc4[nH]3)cc2)cc(C(=O)NCc2c(C)cc(C)[nH]c2=O)c1C | > 40 | > 40 | > 40 | – | – | – | –
14 | CCNc1cc(-c2ccc(CC(=O)N3CCC(c4nc5c(C(N)=O)cccc5[nH]4)CC3)cc2)cc(C(=O)NCc2c(C)cc(C)[nH]c2=O)c1C | > 40 | > 40 | > 40 | – | – | – | –
